How the values were obtained:
[1] = system: Botrytis cinerea; assay: Botrytis test (beans)/protective; assay type: in vivo; conditions: protective, 3 days after inoculation
Experimental: Botrytis Test (Beans)/Protective
To produce a suitable preparation of active compound, either commercially available formulations of active compound (individual active compound or active compound combinations) or one part by weight of active compound is mixed with 4.7 parts by weight of solvent (acetone) and 0.3 parts by weight of emulsifier (alkyl-aryl polyglycol ether), and the mixture is diluted with water to the desired concentration.
To test for protective activity, young plants are sprayed with the preparation of active compound until dripping wet. After the spray coating has dried on, 2 small pieces of agar covered with Botrytis cinerea are placed on each leaf. The inoculated plants are placed in a darkened humid chamber at 20° C. 3 days after the inoculation, the size of the infected spots on the leaves is evaluated.
Active compounds, active compound concentrations and test results can be seen from the tables which follow.

[2] = system: Penicillium custosum; assay: Agar plate test with Penicillium custosum; assay type: cell-based; conditions: 100 ppm, inhibition of growth after 6 days
Experimental: Agar Plate Test With Penicillium custosum
39 parts by weight of potato dextrose agar
20 parts by weight of agar
are dissolved in 1,000 ml of distilled water and the solution is kept in an autoclave at 121° C. for 20 minutes.
50 parts by weight of acetone
950 parts by weight of water
Ratio of the amount of solvent to nutrient medium: 1:100
To produce a suitable preparation of active compound, 1 part by weight of active compound is mixed with the stated amount of solvent.
The concentrate is thoroughly mixed, in the stated ratio, with the liquid nutrient medium, and the mixture is poured into Petri dishes.
When the nutrient medium has cooled and solidified, the plates are inoculated with the following microorganisms and are incubated at about 21° C.: Penicillium custosum.
Evaluation is carried out after 6 days, the inhibition of growth being used as a measure of the action of the products.

[3] = system: Erysiphe graminis f.sp. hordei; assay: Erysiphe test (barley)/protective; assay type: in vivo; conditions: protective, 125 g/ha, 7 days after inoculation
Experimental: Erysiphe Test (Barley)/Protective
(§1) To produce a suitable preparation of active compound, commercially available formulations of active compound are diluted with water to the desired concentration.
(§2) To test for protective activity, young plants are sprayed with the preparation of active compound at the application rate shown.
After the spray coating has dried on, the plants are dusted with spores of Erysiphe graminis f.sp. hordei.
(§3) The plants are placed in a greenhouse at a temperature of about 20° C. and a relative atmospheric humidity of about 80%, in order to promote the development of mildew pustules.
(§4) Evaluation is carried out 7 days after the inoculation.

[4] = system: Erysiphe graminis f.sp. tritici; assay: Erysiphe test (wheat)/protective; assay type: in vivo; conditions: protective, 125 g/ha, 7 days after inoculation
Experimental: Erysiphe Test (Wheat)/Protective
as §1, §2
After the spray coating has dried on, the plants are dusted with spores of Erysiphe graminis f.sp. tritici.
as §3
Evaluation is carried out 7 days' after the inoculation.

[5] = system: Leptosphaeria nodorum; assay: Leptosphaeria nodorum test (wheat)/protective; assay type: in vivo; conditions: protective, 125 g/ha, 10 days after inoculation
Experimental: Leptosphaeria nodorum Test (Wheat)/Protective
as §1, §2
After the spray coating has dried on, the plants are sprayed with a spore suspension of Leptosphaeria nodorum. The plants remain for 48 hours in an incubation cabin at 20° C. and 100% relative atmospheric humidity.
The plants are placed in a greenhouse at a temperature of about 15° C. and a relative atmospheric humidity of about 80%.
Evaluation is effected 10 days after the inoculation.

[6] = system: Erysiphe graminis f.sp. hordei; assay: Erysiphe test (barley)/curative; assay type: in vivo; conditions: curative, 7 days after inoculation
Experimental: Erysiphe Test (Barley)/Curative
as §1
To test for curative activity, young plants are dusted with spores of Erysiphe graminis f.sp. hordei. 48 hours after the inoculation, the plants are sprayed with the preparation of active compound at the application rate shown.
as §3, §4
The expected degree of effectiveness in % of the untreated control was calculated using the equation [formula]
in which x and y denote, respectively, the degree of effectiveness—expressed in % of the untreated control—obtained by the two preparations when used separately. If the actually observed degree of effectiveness of the active compound combination exceeds the value calculated for the expected degree of effectiveness (E) using the abovementioned formula, then there is a superadditive, i.e. synergistic, effect.

[7] = system: Fusarium nivale; assay: Fusarium nivale test (wheat)/seed treatment; assay type: in vivo; conditions: approx. 3 weeks after sowing
Experimental: Fusarium nivale Test (Wheat)/Seed Treatment
(§5) The active compounds are used as a powder for dry seed treatment. They are prepared by extending the active compound in question with rock meal to give a finely pulverulent mixture which guarantees uniform distribution on the seed surface.
(§6) To carry out the seed treatment, the infected seed and the seed-dressing product are shaken for 3 minutes in a sealed glass flask.
2×100 wheat kernels are sown in standard soil at a depth of 1 cm and grown in the greenhouse at a temperature of approximately 10° C. and a relative atmospheric humidity of approximately 95% in seed boxes which are exposed to the light for 15 hours per day.
Approximately 3 weeks after sowing, the plants are evaluated for snow blight symptoms.

[8] = system: Drechslera graminea; assay: Drechslera graminea test (barley)/seed treatment (syn. Helminthosporium gramineum); assay type: in vivo; conditions: approx. 3 weeks after sowing
Experimental: Drechslera graminea Test (Barley)/Seed Treatment (syn. Helminthosporium gramineum)
as §5, §6
The seed, embedded in screened, moist standard soil in sealed Petri dishes, is exposed to a temperature of 4° C. for 10 days in a refrigerator. This triggers germination of the barley and, if appropriate, of the fungal spores. 2×50 pregerminated barley kernels are subsequently sown in standard soil at a depth of 3 cm and grown in a greenhouse at a temperature of approximately 18° in seed boxes which are exposed to the light for 15 hours per day.
Approximately 3 weeks after sowing, the plants are evaluated for symptoms of barley leaf stripe.

Compound: CC1(C(=O)Nc2ccc(O)c(Cl)c2Cl)CCCCC1 [(I)]
- Degree of effectiveness in % of the untreated control ([1]; 5 ppm): 29%
- Degree of effectiveness in % of the untreated control [2]: 24%
- Degree of effectiveness in % of the untreated control [3]: 18%
- Degree of effectiveness in % of the untreated control [4]: 25%
- Degree of effectiveness in % of the untreated control [5]: 57%
- Degree of effectiveness in % of the untreated control ([6]; 20 g/ha): 25%
- Degree of effectiveness in % of the untreated control ([7]; 25 mg/kg of seed): 0%
- Degree of effectiveness in % of the untreated control ([7]; 100 mg/kg of seed): 22%
- Degree of effectiveness in % of the untreated control ([8]; 50 mg/kg of seed): 41%
- Degree of effectiveness in % of the untreated control ([8]; 100 mg/kg of seed): 43%

Compound: CCCN(CC)CC1COC2(CCC(C(C)(C)C)CC2)O1 (stereo not drawn) [(L), 8-(,1,1-dimethylethyl)-N-ethyl-N-propyl-1,4-dioxaspiro[4,5]decane-2-methaneamine]
- Degree of effectiveness in % of the untreated control ([1]; 200 ppm): 0%
- Degree of effectiveness in % of the untreated control ([6]; 10 g/ha): 66%

Compound: CNC(=O)/C(=N/OC)c1ccccc1Oc1ccccc1 [(M), (E)-α-(methoxyimino)-N-methyl-2-phenoxy-benzacetamide]
- Degree of effectiveness in % of the untreated control ([1]; 25 ppm): 28%

Compound: CNC(=O)/C(=N/OC)c1ccccc1COc1cc(C)ccc1C [(N), (E)-α-(methoxyimono)-N-methyl-2-(2,5-dimethyl-phenoxy-methyl)-benzacetamide]
- Degree of effectiveness in % of the untreated control ([1]; 12.5 ppm): 64%

Compound: Cc1ccc(C(C)NC(=O)C(NC(=O)OC(C)C)C(C)C)cc1 (stereo not drawn) [(O), 1-methylethyl [2-methyl-1-[[[1-(4-methylphenyl)ethyl]amino]carbonyl]propyl]-carbamate]
- Degree of effectiveness in % of the untreated control ([1]; 200 ppm): 19%

Compound: Cc1cc(C2CC2)nc(Nc2ccccc2)n1 [Ciprodinyl, cyprodinyl]
- Degree of effectiveness in % of the untreated control ([1]; 5 ppm): 5%

Compound: Fc1ccc(C2(Cn3cncn3)OC2c2ccccc2Cl)cc1 (stereo not drawn) [Epoxiconazole, epoxiconazole]
- Degree of effectiveness in % of the untreated control [5]: 57%

Compound: CCCCc1c(C)nc(NCC)nc1O [Ethirimol, ethirimol]
- Degree of effectiveness in % of the untreated control ([8]; 100 mg/kg of seed): 8%

Compound: N#Cc1c[nH]cc1-c1cccc(Cl)c1Cl [Fenpiclonil, fenpiclonil]
- Degree of effectiveness in % of the untreated control ([7]; 25 mg/kg of seed): 6%
- Degree of effectiveness in % of the untreated control ([8]; 50 mg/kg of seed): 41%

Compound: CC(Cc1ccc(C(C)(C)C)cc1)CN1CCCCC1 (stereo not drawn) [Fenpropidin, fenpropidin]
- Degree of effectiveness in % of the untreated control ([1]; 50 ppm): 0%

Compound: N#Cc1c[nH]cc1-c1cccc2c1OC(F)(F)O2 [Fludioxonil]
- Degree of effectiveness in % of the untreated control ([1]; 1 ppm): 5%

Compound: O=c1c2cc(F)ccc2nc(-n2cncn2)n1-c1ccc(Cl)cc1Cl [Fluquinconazole, fluquinconazole]
- Degree of effectiveness in % of the untreated control ([1]; 25 ppm): 29%

Compound: CC(=O)O.CC(=O)O.CC(=O)O.NC(N)=NCCCCCCCCNCCCCCCCCN=C(N)N [Iminoctadine triacetate]
- Degree of effectiveness in % of the untreated control [3]: 27%

Compound: Cc1ccc2nc3sc(=O)sc3nc2c1 [Quinomethionate, quinomethionate]
- Degree of effectiveness in % of the untreated control ([1]; 50 ppm): 0%
- Degree of effectiveness in % of the untreated control [4]: 9%

Compound: O=S([O-])CO.[Na+] [Sodium hydroxymethyl sulphinate]
- Degree of effectiveness in % of the untreated control ([1]; 200 ppm): 32%
